“Also recorded” adds a separate entry of the source. Read-outs that look alike come from different tables or passages of the source.
Legend:
Vero cells = assay: Cytotoxicity resazurin assay; type: cell-based; details: Chlorocebus sabaeus, 48 hours, ±standard deviation, maximum concentration 2 mM
Method: The cytotoxicity of the synthesised compounds was evaluated using the resazurin assay. The assay involves live cells converting oxidized blue resazurin dye to pink, highly fluorescent resorufin through irreversible enzymatic reduction.[44] This non‐toxic reagent is a useful instrument for determining drug toxicity and cell growth.
Dulbecco's modified Eagle's medium (DMEM) with high glucose (Separations) supplemented with 1 % L‐glutamine, non‐essential amino acids, and penicillin‐streptomycin (Sigma Aldrich), and 10 % fetal bovine serum (Thermofisher Scientific) was used to cultivate Vero cells. The cells were kept at 37 °C and 5 % CO2 in a humidified environment. For the assay, 96 well plates were prepared by pipetting 100 μL of cell suspension (60 000 cells/mL) per well and incubating the plates for 24 hours. The cells were then treated with seven two‐fold concentration dilutions of: (1) 1 μM emetine dihydrochloride (Sigma Aldrich) solution (positive control); (2) 2 mM experimental compound solutions. Cell‐free growth medium was included as a blank. The treated plates were incubated for 48 hours.
To initiate the resazurin assay, 50 μL of sterile‐filtered resazurin sodium salt (Sigma Aldrich) solution (0.01 % in phosphate‐buffered saline (PBS)) was added to the prepared plates and then incubated for 2 hours. A Thermofisher Scientific's GO Multiscan plate reader was used to measure the absorbance at 570 and 600 nm. SkanIt 4.0 Research Edition software was used to perform the data analysis for every biological replicate. After subtracting background absorbance (600 nm) from the 570 nm absorbance data, the mean absorbance was computed, and the percentage of viable cells was estimated using the formula below: Cellviability%=(ΔAbssample-ΔAbsblank)/(ΔAbsnegcontrol-ΔAbsblank)X100
GraphPad Prism 5 was used to calculate the IC50 and Z‐score for each compound's biological replicate. The mean IC50 of the biological replicates and standard deviation (SD) was calculated to determine the final IC50 of each compound.

[1] = test system: L. major (strain NIH S (MHOM/SN/74/Seidman)) promastigotes; assay: Antipromastigote resazurin assay; type: cell-based, Leishmania major; details: for IC50: promastigotes, maximum concentration 2 mM, ±standard deviation; for inhibition at 10 µM: L. major strain IR‐173 (as headed) promastigotes, read-out: Antipromastigote growth inhibition (%)
[2] = test system: L. donovani strain 9515 intramacrophage amastigotes; assay: Intramacrophage antileishmanial growth inhibition assay; type: cell-based; details: Leishmania donovani, read-out: Anti‐amastigote growth inhibition (%)
Method: (§1) A modified resazurin assay[47, 48] and the two Leishmania strains were also used to assess the efficacy of synthesised compounds against intramacrophage parasites.
(§2) Human monocytic leukemia (THP‐1) cells were cultured in RPMI 1640 medium with L‐glutamine (Sigma Aldrich) supplemented with, 1 % penicillin/streptomycin solution (Lonza), 10 % fetal bovine serum (FBS; Thermofisher Scientific) and 2 g/L sodium bicarbonate (Sigma Aldrich). The cells were maintained in a humidified environment at 37 °C and 5 % CO2.
(§3) For the intramacrophage assay, a 500 000 cells/mL THP‐1 cell suspension was prepared, 25 ng/mL phorbol 12‐myristate 13‐acetate (PMA) added and the suspension seeded in 96 well plates (Nunc, Thermofisher Scientific) at 200 μL/well. Cell‐free growth medium was included as the blank. The plates were incubated for 48 hours in a humidified environment at 37 °C and 5 % CO2 to encourage the differentiation of the suspended cells to adherent macrophages.
(§4) To eliminate non‐adherent cells after the PMA treatment, the plates were carefully washed once with warm PBS. Then, a premade promastigote suspension ([…]) was added. The suspension consisted of stationary phase promastigotes in THP‐1 cell growth medium, with a multiplicity of infection (MOI) of 30 : 1. Parasite‐free medium was also added to selected THP‐1 cell‐containing wells to serve as parasite blank. The plates were thoroughly rinsed four times with warm PBS to get rid of extracellular parasites after being cultured for 24 hours to encourage macrophage infection. The cells were then treated with 160 μL of growth medium and 40 μL of either solvent (parasite blank and negative control with parasites) or 40 μL of compound solutions. For a dual‐point activity screening, 10 μM and 2 mM of compound were prepared in separate plates. Amphothericin B (10 μM) served as the standard antileishmanial drug. The plates were incubated for 72 hours in a humidified environment at 37 °C and 5 % CO2.
(§5) For the plates treated with 10 μM of compound, any serum and extracellular promastigotes that remained were carefully removed from the wells by rinsing with warm PBS. The wells were then treated with 20 μL of 0.05 % sodium dodecyl sulphate (SDS; Sigma Aldrich) in PBS for 30 sec to lyse the macrophages. Lysis was terminated with the addition of 180 μL promastigote growth medium with 10 % FBS. For the resazurin assay, 10 μL of resazurin solution (0.025 % in PBS) was added to each well and the plates were further incubated at 37 °C in for 72 hours in the dark to measure amastigote recovery to proliferative promastigotes.
(§6) A Thermofisher Scientific's GO Multiscan plate reader was used to measure absorbance at 570 nm and 600 nm. SkanIt 4.0 Research Edition software was used to perform the data analysis for every biological replicate. Background absorbance (600 nm) was subtracted from the 570 nm absorbance data and the mean absorbance was computed.
(§7) For the activity screening, the following formula was used to determine growth inhibition percentage: Growthinhibition%=100-[(ΔAbssample-ΔAbsblank)/(ΔAbsnegcontrol-ΔAbsblank)X100]

[3] = test system: Leishmania donovani (strain 9515 (MHOM/IN/95/9515)) promastigotes; assay: Antipromastigote resazurin assay; type: cell-based; details: for IC50: promastigotes, maximum concentration 2 mM, ±standard deviation, read-out: L. donovani 9515 antipromastigote IC50; for inhibition at 10 µM: L. donovani strain 9515 promastigotes, read-out: Antipromastigote growth inhibition (%)
Method: The antipromastigote activity of synthesised compounds was evaluated using a modified method of the resazurin assay[45, 46] against two Leishmania strains.
Leishmania donovani (strain 9515 (MHOM/IN/95/9515)) and L. major (strain NIH S (MHOM/SN/74/Seidman)) promastigotes were cultured in M199 with Hank's salts and 0.68 mM L‐glutamine (Sigma Aldrich) supplemented with 0.0005 % hemin, 0.0001 % biotin, 0.1 mM adenine (Sigma Aldrich), 10 % fetal bovine serum, 50 U/mL Penicillin/Streptomycin solution, 4.2 mM sodium bicarbonate and 25 mM Hepes buffer. The promastigotes were maintained at an adjusted pH of 7.3–7.4 growth medium at 26 °C. […] Amphothericin B (10 μM) served as the standard antileishmanial drug and parasite‐free growth medium was included as the blank. The plates were incubated for 48 hours at 26 °C in humidified environment.
Following the initial incubation, 50 μL of resazurin solution (0.01 % in PBS) was added to each well and the plates underwent further incubation at 26 °C for 24 hours in the dark. A Thermofisher Scientific's GO Multiscan plate reader was used to measure absorbance at 570 nm and 600 nm. SkanIt 4.0 Research Edition software was used to perform the data analysis for every biological replicate. Background absorbance (600 nm) was subtracted from the 570 nm absorbance data and the mean absorbance was computed. The cell viability and data analysis were performed as indicated in the cytotoxicity assay.

[4] = test system: L. major intramacrophage amastigotes; assay: Intramacrophage antileishmanial growth inhibition assay; type: cell-based, Leishmania major; details: for host cell and parasite death in L. major anti‐amastigote screening: 2 mM of compound, L. major only; for inhibition at 10 µM: Leishmania major, L. major strain IR‐173 (as headed) intramacrophage amastigotes, read-out: Anti‐amastigote growth inhibition (%)
Method: as §1, §2, §3, §4, §5
Any remaining extracellular promastigotes were afterwards carefully removed from the wells by rinsing with warm PBS. The wells were then treated with 50 μL of resazurin solution (0.01 % in PBS) and the plates were further incubated at 37 °C for 4 hours in the dark to assess host cell viability.
as §6, §7

| Structure (SMILES) | IC50 ([1]; Leishmania major) | IC50 ([3]; Leishmania donovani) | IC50 [1] | IC50 [3] | IC50 (Vero cells) | SI2: Selectivity index=IC50 Vero/L. major antipromastigote IC50 [1] | inhibition at 10 µM ([1]; Leishmania major) | inhibition at 10 µM [2] | SI1: Selectivity index=IC50 Vero/L. donovani 9515 antipromastigote IC50 [3] | inhibition at 10 µM ([3]; Leishmania donovani) | host cell and parasite death in L. major anti‐amastigote screening [4] | inhibition at 10 µM [4] |
| --- | --- | --- | --- | --- | --- | --- | --- | --- | --- | --- | --- | --- |
| O=S1(=O)c2ccccc2N=CN1CCOc1ccc(Cl)cc1 [Compound 11, 2‐[2‐(4‐Chlorophenoxy)ethyl]‐2H‐benzo[e][1,2,4]thiadiazine‐1,1‐dioxide] | 300 ± 3.68 µM | 290 ± 21.4 µM | – | – | 747 ± 188 µM | 2.49 | 0% | 0% | 2.57 | 3% | killed both parasite and host cell | 0% |
| COCCN1C=Nc2ccccc2S1(=O)=O [Compound 3, 2‐(2‐Methoxyethyl)‐2H‐benzo[e][1,2,4]thiadiazine‐1,1‐dioxide] | 701 ± 40.8 µM | 482 ± 7.57 µM | – | – | 502 ± 152 µM | – | 0% | 0% | – | 2% | – | 0% |
| C=CCOCCN1C=Nc2ccccc2S1(=O)=O [Compound 13, 2‐[2‐(Allyloxy)ethyl]‐2H‐benzo[e][1,2,4]thiadiazine‐1,1‐dioxide] | 455 ± 9.55 µM | 360 ± 12.5 µM | – | – | 531 ± 15.7 µM | 1.17 | 0% | 0% | – | 15% | killed both parasite and host cell | 0% |
| COCCOCCN1C=Nc2ccccc2S1(=O)=O [Compound 4, 2‐[2‐(2‐Methoxyethoxy)ethyl]‐2H‐benzo[e][1,2,4]thiadiazine‐1,1‐dioxide] | 919 ± 22.3 µM | 701.6 ± 4.17 µM | – | – | 988 ± 10.6 µM | – | 0% | 0% | – | 0% | – | 0% |
| CCOCCOCCOCCN1C=Nc2ccccc2S1(=O)=O [Compound 8, 2‐{2‐[2‐(2‐Ethoxyethoxy)ethoxy]ethyl}‐2H‐benzo[e][1,2,4]thiadiazine‐1,1‐dioxide] | 909 ± 124 µM | 809 ± 20.2 µM | – | – | 922 ± 93.9 µM | – | 0% | 0% | – | 3% | – | 0% |
| COCCOCCOCCN1C=Nc2ccccc2S1(=O)=O [Compound 5, 2‐{2‐[2‐(2‐Methoxyethoxy)ethoxy]ethyl}‐2H‐benzo[e][1,2,4]thiadiazine‐1,1‐dioxide] | – | 830 ± 10.5 µM | – | – | 999 ± 16.8 µM | 0.89 | 0% | 0% | 1.20 | 5% | both host cell and parasite death | 0% |
| CC[C@H]1CN2CCc3cc(OC)c(OC)cc3[C@@H]2C[C@@H]1C[C@H]1NCCc2cc(OC)c(OC)cc21 [Em, emetine, reference compound] | – | – | – | – | 0.08 ± 0.01 µM | – | – | – | – | – | – | – |

Further molecules by falling IC50 ([3]; Leishmania donovani), results first:

| IC50 ([1]; Leishmania major) | IC50 ([3]; Leishmania donovani) | IC50 [1] | IC50 [3] | Structure (SMILES) | IC50 (Vero cells) | SI2: Selectivity index=IC50 Vero/L. major antipromastigote IC50 [1] | inhibition at 10 µM ([1]; Leishmania major) | inhibition at 10 µM [2] | SI1: Selectivity index=IC50 Vero/L. donovani 9515 antipromastigote IC50 [3] | inhibition at 10 µM ([3]; Leishmania donovani) | host cell and parasite death in L. major anti‐amastigote screening [4] | inhibition at 10 µM [4] |
| --- | --- | --- | --- | --- | --- | --- | --- | --- | --- | --- | --- | --- |
| 185 ± 22.1 µM | 238 ± 14.5 µM | – | – | C#CCN1C=Nc2ccccc2S1(=O)=O [Compound 14, 2‐(Prop‐2‐yn‐1‐yl)‐2H‐benzo[e][1,2,4]thiadiazine‐1,1‐dioxide] | 535 ± 21.8 µM | 2.89 | 23% | 0% | 2.25 | 1% | killed both parasite and host cell | 0% |
| 103 µM | 153 µM | 104 ± 4.53 µM | 153 ± 7.92 µM | O=S1(=O)c2ccccc2N=CN1CCOc1ccccc1 [Compound 9, 2‐(2‐Phenoxyethyl)‐2H‐benzo[e][1,2,4]thiadiazine‐1,1‐dioxide] | 975.3 ± 3.68 µM | 9.41 | 58% | 0% | 6.36 | 7% | both host cell and parasite death; also recorded: killed both parasite and host cell | 0% |
| – | 0.02 µM | – | – | C[C@@H]1[C@H](O)[C@@H](C)/C=C/C=C/C=C/C=C/C=C/C=C/C=C/[C@H](O[C@@H]2O[C@H](C)[C@@H](O)[C@H](N)[C@@H]2O)C[C@@H]2O[C@](O)(C[C@@H](O)C[C@@H](O)[C@H](O)CC[C@@H](O)C[C@@H](O)CC(=O)O[C@H]1C)C[C@H](O)[C@H]2C(=O)O [AmB, Amphotericin B, reference compound] | 57.8 ± 3.22 µM | – | 100% | 100% | – | 100% | – | 100% |
